Assay results published in patent US4180582A, “6-n-Propyl-8-methoxy-methyl or methylmercaptomethylergolines and related compounds as prolactin inhibitors and to treat Parkinson's syndrome” (priority 1979, dated 1979).
Structures can show the parent of a compound that is named as a salt.

How the values were obtained:
[1] = tested on: 6-hydroxydopamine-lesioned rats; experiment: turning behavior test in 6-hydroxydopamine-lesioned rats; assay type: in vivo, rat; conditions: for Average Number of Turns/rat: first 15 minutes after end of latency period
Experimental: In this test, nigro-neostriatal-lesioned rats are employed, which are prepared by the procedure of Ungerstedt and Arbuthnott, Brain Res, 24, 485 (1970). A compound having dopamine agonist activity causes the rats to turn in circles contralateral to the side of the lesion. After a latency period, which varies from compound to compound, the number of turns is counted over a 15-minute period.
The compounds were dissolved in water and the aqueous solution injected into the rat by the intraperitoneal route.

prolactin [2] = experiment: inhibition of prolactin secretion in reserpine-treated male rats; assay type: in vivo, rat (Sprague-Dawley); parameters: Serum Prolactin Level: unit not given here; conditions: for Percent Inhibition of Serum Prolactin: vs. control of same experiment
Experimental: Adult male rates of the Sprague-Dawley strain weighing about 200 g. were housed in an air-conditioned room with controlled lighting (lights on 6 a.m.-8 p.m.) and fed lab chow and water ad libitum. Each rat received an intraperitoneal injection of 2.0 mg. of reserpine in aqueous suspension 18 hours before administration of the ergoline derivative. The purpose of the reserpine was to keep prolactin levels uniformly elevated. The compounds under test were dissolved in 10 percent ethanol at a concentration of 10 mcg.ml. and were injected intraperitoneally at a standard dose of 50 mcg/kg. Each compound was administered to a group of 10 rats, and a control group of 10 intact males received an equivalent amount of 10 percent ethanol. One hour after treatment all rats were killed by decapitation, and 150 μl aliquots of serum were assayed for prolactin. The results were evaluated statistically using Student's "t" test to calculate the level of significance, "p", of the changes in prolactin level.
The difference between the prolactin level of the treated rats and prolactin level of the control rats, divided by the prolactin level of the control rats gives the percent inhibition of prolactin secretion attributable to the compounds of this invention. In the table, column 1 gives the name of the compound; column 2, the prolactin level for each group of rats; column 3, the percent prolactin inhibition; and column 4, the level of significance. The data were collected from three separate experiments, each with its own control, and Table 2 sets forth the results obtained by experiment.

dopamine receptors [3] = experiment: inhibition of high affinity binding of tritiated dopamine to dopamine receptors in membranes from striatal synaptosomes; parameters: species or system bovine; conditions: in words
serotonin = serotonin agonism; conditions: in words
[4] = in words; cited from earlier work
prolactin [5] = conditions: in words; cited from earlier work
dopamine receptors [6] = conditions: in words; cited from earlier work
Parkinsonism = conditions: in words; cited from earlier work
[7] = 50 mcg/kg i.p., one hour after treatment

SMILES | % of Rats Exhibiting Turning Behavior ([1]; IP dose 1 mg/kg) [%] | Duration of Effect ([1]; IP dose 1 mg/kg) [h] | Latency of Effect ([1]; IP dose 1 mg/kg) [min] | Percent Inhibition of Serum Prolactin (prolactin [2]; [7]) [%] | other results
CCCN1CC(CSC)=C[C@@H]2c3cccc4[nH]cc(c34)C[C@H]21 [D-6-n-propyl-8-methylmercaptomethyl-8-ergolene maleate] | 100 | 1 | 4 | 91 | –
CCCN1C[C@H](CSC)C[C@@H]2c3cccc4[nH]cc(c34)C[C@H]21 [D-6-n-Propyl-8β-methylmercaptomethylergoline] | – | – | – | – | inhibition of high affinity binding of tritiated dopamine (dopamine receptors [3]): extremely potent inhibitors; serotonin agonist / antagonist activity (serotonin): serotonin agonists rather than serotonin antagonists
N[C@@H](Cc1ccc(O)c(O)c1)C(=O)O [Example 1-dopa, 1-dihydroxyphenylalanine] | – | – | – | – | metabolism [4]: rapidly metabolized
CC(C)C[C@H]1C(=O)N2CCC[C@H]2[C@]2(O)O[C@](NC(=O)[C@@H]3C=C4c5cccc6[nH]c(Br)c(c56)C[C@H]4N(C)C3)(C(C)C)C(=O)N12 (stereo in doubt) [2-bromo-α-ergokryptine] | – | – | – | – | activity as prolactin inhibitors (prolactin [5]): activity as prolactin inhibitors; dopamine receptor stimulation (dopamine receptors [6]): stimulate dopamine receptors; usefulness in the treatment of Parkinsonism (Parkinsonism): useful in the treatment of Parkinsonism
CC(C)C1C(=O)N2CCCC2C2(O)OC(NC(=O)C3CC4c5cccc6[nH]cc(c56)CC4N(C)C3)(C(C)C)C(=O)N12 (stereo not shown) [dihydroergocornine] | – | – | – | – | activity as prolactin inhibitors (prolactin [5]): activity as prolactin inhibitors
CN1CC(CC#N)C[C@@H]2c3cccc4[nH]cc(c34)C[C@H]21 (stereo partly drawn) [D-6-methyl-8-cyanomethylergoline] | – | – | – | – | activity as prolactin inhibitors (prolactin [5]): activity as prolactin inhibitors
CCCN1C[C@H](CSC)C=C2c3cccc4[nH]cc(c34)C[C@H]21 [D-6-n-propyl-8β-methylmercaptomethyl-9-ergolene] | 100 | ≥ 2 | 4 | 81 | Average Number of Turns/rat ([1]; IP dose 1 mg/kg): 200 Turns/rat
CCCN1C[C@H](CSC)C[C@@H]2c3cccc4[nH]cc(c34)C[C@H]21 [D-6-n-propyl-8β-methylmercaptomethylergoline methanesulfonate] | – | ≥ 24 | – | – | relative potency in the turning behavior test ([1]; vs. corresponding D-6-methyl derivative, dose response curves): about 30 times; relative potency as a prolactin inhibitor (prolactin [2]; vs. corresponding D-6-methyl compound, dose response curves): about 100 times
CSC[C@@H]1C[C@@H]2c3cccc4[nH]cc(c34)C[C@H]2N(C)C1 [D-6-methyl-8β-methylmercaptomethylergoline mesylate, reference compound] | 50 | – | – | 58 | Duration of Effect in Hours ([1]; IP dose 1 mg/kg): ~ 2 Hours; Average Number of Turns/rat ([1]; IP dose 1 mg/kg): 51 Turns/rat
CCCN1C[C@H](COC)C[C@@H]2c3cccc4[nH]cc(c34)C[C@H]21 [D-6-n-propyl-8β-methoxymethylergoline methanesulfonate] | 100 | ≥ 2 | 6 | 96 | –
CN1C[C@H](CC#N)C[C@@H]2c3cccc4[nH]c(Cl)c(c34)C[C@H]21 [legotrile] | – | – | – | – | usefulness in the treatment of Parkinsonism (Parkinsonism): useful in the treatment of Parkinsonism
CC(C)[C@H]1C(=O)N2CCC[C@H]2[C@]2(O)O[C@](NC(=O)[C@@H]3C=C4c5cccc6[nH]cc(c56)C[C@H]4N(C)C3)(C(C)C)C(=O)N12 [ergocornine] | – | – | – | – | activity as prolactin inhibitors (prolactin [5]): activity as prolactin inhibitors; dopamine receptor stimulation (dopamine receptors [6]): stimulate dopamine receptors
CCCN1C[C@H](C[S+](C)[O-])C[C@@H]2c3cccc4[nH]cc(c34)C[C@H]21 (stereo partly drawn) [D-6-n-propyl-8β-methylsulfinylmethylergoline mesylate] | 100 | 1 | 7 | 92 | Average Number of Turns/rat ([1]; IP dose 1 mg/kg): 65 Turns/rat; Serum Prolactin Level (prolactin [2]; 50 mcg/kg i.p., one hour after treatment, reserpine-treated male rats): 3.3
CCN1C[C@H](CSC)C[C@@H]2c3cccc4[nH]cc(c34)C[C@H]21 [D-6-ethyl-8β-methylmercaptomethylergoline mesylate] | 100 | ≥ 2 | 9 | 91 | –
CCCN1C[C@H](CSC)C[C@@H]2c3cccc4[nH]c(Br)c(c34)C[C@H]21 [D-2-bromo-6-n-propyl-8β-methylmercaptomethylergoline mesylate] | 100 | 1 | 5 | 89 | Average Number of Turns/rat ([1]; IP dose 1 mg/kg): 71 Turns/rat
